Source: article PMC9127750, “Structure-based design of CDC42 effector interaction inhibitors for the treatment of cancer” (Cell reports, 2022)

System: WM3248 melanoma cells, 486 antibodies
Assay: Reverse phase protein arrays (RPPA);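 as to RPPA ACC1.R.C: ratio of treated to vehicle (0 µM) normalized linear protein signal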;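 as to RPPA AMPK.a2 pS345.R.V: ratio of treated to vehicle (0 µM) normalized linear protein signal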;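 as to RPPA AMPKa pT172.R.C: ratio of treated to vehicle (0 µM) normalized linear protein signal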;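 as to RPPA ASNS.R.V: ratio of treated to vehicle (0 µM) normalized linear protein signal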;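 as to RPPA Akt1.R.V: ratio of treated to vehicle (0 µM) normalized linear protein signal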;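 as to RPPA Atg5.R.C: ratio of treated to vehicle (0 µM) normalized linear protein signal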;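 as to RPPA Bim.R.V: ratio of treated to vehicle (0 µM) normalized linear protein signal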
Type: cell-based, Human
Conditions: 10 uM
Excerpt: Pellets were snap frozen in liquid nitrogen and shipped to MD Anderson Cancer Center core RPPA facility for RPPA analysis (Table S5). Three biological replicates for each sample were generated.
Nomenclatures on the RPPA heatmaps: name_of_antibody.species_of_antibody.status_of_antibody. V - antibody validated; C - validation of antibody in progress; Q - antibody nonspecific; E – under evaluation; antibodies raised in M - mouse, G - goat, R - rabbit, or T - rat.

With CN(C)c1cccc(Nc2cc(-c3ccccc3)nc(C3CCNCC3)n2)c1 [ARN22089, N1,N1-dimethyl-N3-(6-phenyl-2-(piperidin-4-yl)pyrimidin-4-yl)benzene-1,3-diamine] the “RPPA level MTCO1.M.V” value (Average) was 0.952, the “RPPA level Mcl.1.R.V” value (Average) was 0.908 and the “RPPA level MelanA.R.C” value (Average) was 0.925. The “RPPA level Merlin.R.C” value (Average) was 0.993, the “RPPA level Midkine.R.V” value (Average) was 1.001 and the “RPPA level Mitofusin.1.R.V” value (Average) was 0.993. The “RPPA level Mitofusin.2.R.V” value (Average) was 0.945, the “RPPA level Mnk1.R.V” value (Average) was 0.956 and the “RPPA level mTOR.R.V” value (Average) was 0.929. The “RPPA level mTOR_pS2448.R.C” value (Average) was 0.962, the “c.Jun_pS73.R.V RPPA level” value (Average) was 1.013 and the “c.Kit.R.V RPPA level” value (Average) was 1.031. For the same compound, the “c.Met_pY1234_Y1235.R.V RPPA level” value (Average) was 0.982, the “c.Myc.R.C RPPA level” value (Average) was 1.334 and the “cGAS.R.V RPPA level” value (Average) was 1.114. For the same compound, the “cdc2_pY15.R.C RPPA level” value (Average) was 0.967, the “cdc25C.R.V RPPA level” value (Average) was 0.900 and the “RPPA A.Raf.R.V” value (C.1) was 0.924. The “RPPA A.Raf_pS299.R.C” value (C.1) was 1.052, the “RPPA ACC1.R.C” value (C.1) was 0.932 and the “RPPA ACC_pS79.R.V” value (C.1) was 1.211. The “RPPA ACLY_pS455.R.V” value (C.1) was 1.216, the “RPPA ACVRL1.R.C” value (C.1) was 1.064 and the “RPPA ADAR1.M.V” value (C.1) was 1.080. The “RPPA ALKBH5.R.V” value (C.1) was 1.056, the “RPPA AMPK.a2_pS345.R.V” value (C.1) was 0.962 and the “RPPA AMPKa.R.C” value (C.1) was 0.981. For the same compound, the “RPPA AMPKa_pT172.R.C” value (C.1) was 2.354, the “RPPA AR.R.V” value (C.1) was 0.957 and the “RPPA ARID1A.R.C” value (C.1) was 1.055. For the same compound, the “RPPA ASNS.R.V” value (C.1) was 0.968, the “RPPA ATM.R.V” value (C.1) was 0.876 and the “RPPA ATM_pS1981.R.V” value (C.1) was 1.025. For the same compound, the “RPPA ATP5A.M.C” value (C.1) was 1.084, the “RPPA ATP5H.R.V” value (C.1) was 1.134 and the “RPPA ATRX.R.C” value (C.1) was 0.823. For the same compound, the “RPPA AceCS1.R.V” value (C.1) was 1.056, the “RPPA Akt1.R.V” value (C.1) was 0.796 and the “RPPA Akt1_pS473.R.V” value (C.1) was 0.792. For the same compound, the “RPPA Akt2.R.V” value (C.1) was 0.881, the “RPPA Akt2_pS474.R.C” value (C.1) was 0.939 and the “RPPA Akt.R.V” value (C.1) was 0.872. For the same compound, the “RPPA Akt_pS473.R.V” value (C.1) was 0.917, the “RPPA Akt_pT308.R.V” value (C.1) was 0.810 and the “RPPA Ambra1_pS52.R.C” value (C.1) was 1.060. For the same compound, the “RPPA Annexin.I.M.V” value (C.1) was 0.884, the “RPPA Annexin.VII.M.V” value (C.1) was 1.054 and the “RPPA Atg3.R.V” value (C.1) was 0.850. For the same compound, the “RPPA Atg4B.R.C” value (C.1) was 0.734, the “RPPA Atg5.R.C” value (C.1) was 0.909 and the “RPPA Atg7.R.V” value (C.1) was 0.713. For the same compound, the “RPPA Aurora.A.R.C” value (C.1) was 1.325, the “RPPA Aurora.ABC_pT288_pT232_pT198.R.C” value (C.1) was 1.697 and the “RPPA Axl.R.V” value (C.1) was 0.673. For the same compound, the “RPPA B7.H3.R.C” value (C.1) was 0.862, the “RPPA B7.H4.R.C” value (C.1) was 0.874 and the “RPPA B.Raf.R.C” value (C.1) was 0.709. The “RPPA B.Raf_pS445.R.V” value (C.1) was 0.874, the “RPPA BCL2A1.R.V” value (C.1) was 0.885 and the “RPPA BMK1.Erk5_pT218_Y220.R.V” value (C.1) was 1.100. The “RPPA BRCA1.M.C” value (C.1) was 0.993, the “RPPA Bad_pS112.R.V” value (C.1) was 1.031 and the “RPPA Bak.R.C” value (C.1) was 1.026. The “RPPA Bax.R.V” value (C.1) was 0.917, the “RPPA Bcl2.R.C” value (C.1) was 1.064 and the “RPPA Bcl.xL.R.V” value (C.1) was 0.877. For the same compound, the “RPPA BiP.GRP78.M.C” value (C.1) was 0.971, the “RPPA Bid.R.C” value (C.1) was 0.858 and the “RPPA Bim.R.V” value (C.1) was 0.886. The “RPPA X4E.BP1.R.V” value (C.1) was 1.220, the “RPPA X4E.BP1_pS65.R.V” value (C.1) was 0.985 and the “RPPA X4E.BP1_pT37_T46.R.V” value (C.1) was 0.975. For the same compound, the “RPPA X14.3.3.zeta.R.V” value (C.1) was 1.026, the “RPPA X53BP1.R.V” value (C.1) was 0.922 and the “RPPA b.Actin.R.C” value (C.1) was 0.996. For the same compound, the “RPPA b.Catenin_pT41_S45.R.V” value (C.1) was 0.984, the “RPPA c.Abl.R.V” value (C.1) was 1.031 and the “RPPA c.Abl_pY412.R.C” value (C.1) was 0.928. For the same compound, the “RPPA c.IAP2.R.C” value (C.1) was 1.007, the “RPPA PREX1.R.V Average” value (average of 3) was 0.915 and the “RPPA PTEN.R.V Average” value (average of 3) was 0.933. For the same compound, the “RPPA PTPN12.R.V Average” value (average of 3) was 0.962, the “RPPA PYGB.R.V Average” value (average of 3) was 1.021 and the “RPPA PYGM.M.C Average” value (average of 3) was 1.025. The “RPPA Puma.R.C Average” value (average of 3) was 0.968, the “RPPA Pyk2_pY402.R.C Average” value (average of 3) was 0.960 and the “RPPA RBM15.R.V Average” value (average of 3) was 0.873. The “RPPA RIP3.R.C Average” value (average of 3) was 0.948, the “RPPA RIP.R.C Average” value (average of 3) was 0.978 and the “RPPA RPA32_pS4_S8.R.C Average” value (average of 3) was 1.083. For the same compound, the “RPPA RRM1.R.C Average” value (average of 3) was 0.916, the “RPPA RRM2.R.C Average” value (average of 3) was 0.917 and the “RPPA RSK1.R.V Average” value (average of 3) was 0.967. The “RPPA RSK.R.C Average” value (average of 3) was 0.909, the “RPPA Rab11.R.C Average” value (average of 3) was 0.990 and the “RPPA Rab25.R.V Average” value (average of 3) was 0.979. The “RPPA Rad17_pS645.R.V Average” value (average of 3) was 1.063, the “RPPA Rad23A.R.C Average” value (average of 3) was 0.920 and the “RPPA Rad50.R.V Average” value (average of 3) was 0.991. For the same compound, the “RPPA Rad51.R.C Average” value (average of 3) was 1.083, the “RPPA Raptor.R.V Average” value (average of 3) was 0.939 and the “RPPA Rb.M.Q Average” value (average of 3) was 1.024. The “RPPA Rb_pS807_S811.R.V Average” value (average of 3) was 0.952, the “RPPA Rheb.M.C Average” value (average of 3) was 1.056 and the “RPPA Rictor.R.C Average” value (average of 3) was 0.955. For the same compound, the “RPPA Rictor_pT1135.R.V Average” value (average of 3) was 1.027, the “RPPA S6.M.V Average” value (average of 3) was 0.930 and the “RPPA S6_pS235_S236.R.V Average” value (average of 3) was 0.713. For the same compound, the “RPPA S6_pS240_S244.R.V Average” value (average of 3) was 0.956, the “RPPA SCD.M.V Average” value (average of 3) was 1.034 and the “RPPA SF2.R.V Average” value (average of 3) was 1.005. The “RPPA SFRP1.R.V Average” value (average of 3) was 0.965, the “RPPA SGK1.R.V Average” value (average of 3) was 1.012 and the “RPPA SGK3.R.V Average” value (average of 3) was 1.035. The “RPPA SHP2.R.V Average” value (average of 3) was 1.004, the “RPPA SHP.2_pY542.R.C Average” value (average of 3) was 0.896 and the “RPPA SIRPαR.V Average” value (average of 3) was 1.009. For the same compound, the “RPPA SLC1A5.R.C Average” value (average of 3) was 0.975, the “RPPA SOD1.M.V Average” value (average of 3) was 1.031 and the “RPPA SOD2.R.V Average” value (average of 3) was 1.115. The “RPPA SOX7.R.V Average” value (average of 3) was 1.015, the “RPPA STING.R.V Average” value (average of 3) was 0.904 and the “RPPA Shc_pY317.R.C Average” value (average of 3) was 1.847. For the same compound, the “RPPA Slfn11.G.C Average” value (average of 3) was 0.945, the “RPPA Smac.M.Q Average” value (average of 3) was 0.998 and the “RPPA Smad1.R.V Average” value (average of 3) was 1.021. For the same compound, the “RPPA Smad3.R.V Average” value (average of 3) was 0.979, the “RPPA Snail.M.Q Average” value (average of 3) was 0.977 and the “RPPA Sox2.R.V Average” value (average of 3) was 0.987. For the same compound, the “RPPA Sox17.R.V Average” value (average of 3) was 1.018, the “RPPA Src.M.V Average” value (average of 3) was 1.079 and the “RPPA Src_pY416.R.V Average” value (average of 3) was 0.992. For the same compound, the “RPPA Src_pY527.R.V Average” value (average of 3) was 0.908, the “RPPA Stat1_pY701.R.V Average” value (average of 3) was 1.035 and the “RPPA Stat3.R.C Average” value (average of 3) was 0.972. The “RPPA Stat3_pY705.R.C Average” value (average of 3) was 1.002, the “RPPA Stat5a.R.V Average” value (average of 3) was 0.958 and the “RPPA TAZ.R.V Average” value (average of 3) was 0.958. For the same compound, the “RPPA TEAD.R.C Average” value (average of 3) was 0.967, the “RPPA TFAM.R.V Average” value (average of 3) was 0.914 and the “RPPA TFRC.R.V Average” value (average of 3) was 0.926. For the same compound, the “RPPA TIGAR.R.V Average” value (average of 3) was 0.978, the “RPPA TRAP1.M.V Average” value (average of 3) was 1.032 and the “RPPA TRIM25.R.C Average” value (average of 3) was 0.869. The “RPPA TRIP13.R.V Average” value (average of 3) was 1.026, the “RPPA Transglutaminase.M.V Average” value (average of 3) was 1.215 and the “RPPA signal, antibody TSC1.R.C, Average” value (average of 3 replicates) was 0.905. The “RPPA signal, antibody TTF1.R.V, Average” value (average of 3 replicates) was 0.943, the “RPPA signal, antibody TUFM.R.V, Average” value (average of 3 replicates) was 1.288 and the “RPPA signal, antibody Tuberin.R.V, Average” value (average of 3 replicates) was 0.933. The “RPPA signal, antibody Tuberin_pT1462.R.V, Average” value (average of 3 replicates) was 1.050, the “RPPA signal, antibody Twist.M.C, Average” value (average of 3 replicates) was 1.060 and the “RPPA signal, antibody Tyro3.R.V, Average” value (average of 3 replicates) was 1.231. The “RPPA signal, antibody U.Histone.H2B.R.C, Average” value (average of 3 replicates) was 0.832, the “RPPA signal, antibody UBAC1.R.V, Average” value (average of 3 replicates) was 0.948 and the “RPPA signal, antibody UBQLN4.M.C, Average” value (average of 3 replicates) was 0.975. The “RPPA signal, antibody UGT1A.M.V, Average” value (average of 3 replicates) was 1.078, the “RPPA signal, antibody ULK1_pS757.R.C, Average” value (average of 3 replicates) was 0.965 and the “RPPA signal, antibody UQCRC2.M.C, Average” value (average of 3 replicates) was 0.921. For the same compound, the “RPPA signal, antibody UVRAG.R.C, Average” value (average of 3 replicates) was 0.967, the “RPPA signal, antibody VASP.R.V, Average” value (average of 3 replicates) was 0.887 and the “RPPA signal, antibody VAV1.R.C, Average” value (average of 3 replicates) was 0.939. The “RPPA signal, antibody VEGFR.2.R.V, Average” value (average of 3 replicates) was 0.919.
